Source: ChEMBL document CHEMBL1147867, “Identification of antitumour activity of novel derivatives of 8-aryl-2,6,7,8-tetrahydroimidazo[2,1-c][1,2,4]triazine-3,4-dione and 8-aryl-4-imino-2,3,7,8-tetrahydroimidazo[2,1-c][1,2,4]triazin-3(6H)-one” (Bioorg Med Chem, 2007)
Converted amounts (≈) assume the structure as drawn. The source made the active and inactive calls. The rule behind the calls is not given here.

How the values were obtained:
[1] = tested on: RPMI-8226; test: Cell viability in human RPMI 8226 ECACC 87012702 cancer cells at 1 uM after 24 hrs by MTT assay; type: functional
[2] = Cytotoxicity against human LS180 cells at 10 ug/ml after 72 hrs; type: functional; conditions: LS180, 72 h
[3] = tested on: HeLa; test: Cytotoxicity against human HeLa cells at 10 ug/ml after 72 hrs; type: functional
[4] = Cell viability in HSF cells at 1 uM after 24 hrs by MTT assay; type: cell-based, Fibroblast; conditions: human, read-out: Activity
[5] = tested on: T47D; test: Induction of DNA damage in T47D cells at 37.9 uM; type: functional, cell-based; conditions: Homo sapiens
[6] = Cell viability in HSF cells at 50 uM after 24 hrs by MTT assay; type: cell-based, Fibroblast; conditions: human, read-out: Activity
[7] = Cell viability in HSF cells at 100 uM after 24 hrs by MTT assay; type: functional, Homo sapiens, Fibroblast
[8] = tested on: A549; test: Anticancer activity against human A549 cells at 10 ug/ml after 72 hrs; type: functional; conditions: A549, 72 h
[9] = Cytotoxicity against Vero cells at 50 ug/ml after 72 hrs; type: cell-based; conditions: chlorocebus sabaeus, read-out: Inhibition
[10] = tested on: HeLa; test: Cytotoxicity against human HeLa cells at 50 ug/ml after 72 hrs; type: functional
[11] = tested on: T47D; test: Cytotoxicity against human T47D cells at 50 ug/ml after 72 hrs; type: functional
[12] = tested on: T47D; test: Cytotoxicity against human T47D cells at 10 ug/ml after 72 hrs; type: functional
[13] = Cytotoxicity against human LS180 cells at 50 ug/ml after 72 hrs; type: functional; conditions: LS180, 72 h
[14] = Acute toxicity in mouse; type: organism-based; conditions: in vivo
[15] = tested on: RPMI-8226; test: Cell viability in human RPMI 8226 ECACC 87012702 cancer cells at 50 uM after 24 hrs by MTT assay; type: functional
[16] = tested on: HeLa; test: Induction of DNA damage in HeLa cells at 37.9 uM; type: functional, cell-based; conditions: Homo sapiens
[17] = Cytotoxicity against Vero cells at 10 ug/ml after 72 hrs; type: cell-based; conditions: chlorocebus sabaeus, read-out: Inhibition
[18] = tested on: A549; test: Anticancer activity against human A549 cells at 50 ug/ml after 72 hrs; type: functional; conditions: A549, 72 h
[19] = tested on: RPMI-8226; test: Cell viability in human RPMI 8226 ECACC 87012702 cancer cells at 100 uM after 24 hrs by MTT assay; type: functional
[20] = tested on: LS180; test: Induction of DNA damage in LS180 cells at 37.9 uM; type: functional, cell-based; conditions: Homo sapiens
[21] = tested on: Staphylococcus epidermidis; test: Antibacterial activity against Staphylococcus epidermidis after 24 hrs by microdilution broth method; type: functional
[22] = tested on: Streptococcus pyogenes; test: Antibacterial activity against Streptococcus pyogenes after 24 hrs by microdilution broth method; type: functional
[23] = tested on: Staphylococcus aureus; test: Antibacterial activity against Staphylococcus aureus after 24 hrs by microdilution broth method; type: functional
[24] = tested on: Escherichia coli; test: Antibacterial activity against Escherichia coli after 24 hrs by microdilution broth method; type: functional
[25] = tested on: Jurkat; test: Anticancer activity against human jurkat cells; type: functional, cell-based
[26] = tested on: HT-29; test: Anticancer activity against human HT 29 cells; type: functional, cell-based

Row | Structure (SMILES) | Activity [1] | inhibition at 10 µg/mL [2] | inhibition at 10 µg/mL [3] | viability at 24 h, 1 µM [4] | viability at 24 h, 50 µM [6] | Activity [7] | inhibition at 10 µg/mL [8] | cytotoxicity at 72 h, 50 ug/ml [9] | inhibition at 50 µg/mL [10] | inhibition at 50 µg/mL [11] | inhibition at 10 µg/mL [12] | inhibition at 50 µg/mL [13] | LD50 [14] | Activity [15] | cytotoxicity at 72 h, 10 ug/ml [17] | inhibition at 50 µg/mL [18] | MIC [21] | MIC [22] | MIC [23] | MIC [24] | further results
1 | O=c1[nH]nc2n(c1=O)CCN2c1ccc(Cl)cc1 | 104% | 50% | 2% | 99% | 95% | 96% | 0% | 7% | 26% | 1% | 5% | 35% | > 2000 mg/kg | 89% | 0% | 15% |  |  |  |  | Activity [5]: Active; Activity [16]: Active; Activity [19]: 61%; Activity [20]: Active
2 | Cc1ccccc1N1CCN/C1=N\N |  |  |  |  |  |  |  |  |  |  |  |  |  |  |  |  | 31.4 µM (≈ 5.97 µg/mL) | 78.6 µM (≈ 15 µg/mL) | 39.3 µM (≈ 7.48 µg/mL) | 15.7 µM (≈ 2.99 µg/mL) | 
3 | N/N=C1\NCCN1c1ccccc1 |  | 1% | 6% |  |  |  |  | 0% | 3% | 0% | 0% | 0% |  |  | 0% |  | 41.1 µM (≈ 7.24 µg/mL) | 65.8 µM (≈ 11.6 µg/mL) | 41.1 µM (≈ 7.24 µg/mL) | 41.1 µM (≈ 7.24 µg/mL) | 
4 | COc1ccc(N2CCn3c2n[nH]c(=O)c3=O)cc1 | 98% | 0% | 6% | 94% | 92% | 94% | 0% | 10% | 0% | 21% | 7% | 46% | 1500 mg/kg | 99% | 0% | 0% |  |  |  |  | Activity [19]: 99%
5 | Cc1cccc(N2CCN/C2=N\N)c1C |  | 6% | 8% |  |  |  |  | 14% | 0% | 25% | 21% | 0% |  |  | 16% |  | 18.8 µM (≈ 3.84 µg/mL) | 75.2 µM (≈ 15.4 µg/mL) | 37.6 µM (≈ 7.68 µg/mL) | 18.8 µM (≈ 3.84 µg/mL) | 
6 | COc1ccccc1N1CCn2c1n[nH]c(=O)c2=O | 90% | 30% | 5% | 103% | 101% | 94% | 0% | 17% | 8% | 9% | 1% | 29% | 1100 mg/kg | 90% | 26% | 39% |  |  |  |  | Activity [19]: 85%
7 | Cc1ccc(N2CCn3c2n[nH]c(=O)c3=O)cc1 | 95% | 2% | 0% | 93% | 97% | 92% | 20% | 0% | 11% | 22% | 14% | 0% | 1800 mg/kg | 91% | 0% | 31% |  |  |  |  | Activity [19]: 83%
8 | O=c1[nH]nc2n(c1=O)CCN2c1ccccc1 | 96% | 0% | 0% | 93% | 95% | 94% | 0% | 30% | 0% | 0% | 0% | 12% | 1400 mg/kg | 96% | 7% | 17% |  |  |  |  | Activity [19]: 86%
9 | COc1ccccc1N1CCN/C1=N\N |  |  |  |  |  |  |  |  |  |  |  |  |  |  |  |  | 37.4 µM (≈ 7.71 µg/mL) | 74.8 µM (≈ 15.4 µg/mL) | 37.4 µM (≈ 7.71 µg/mL) | 29.9 µM (≈ 6.17 µg/mL) | 
10 | Cc1ccc(N2CCn3c2n[nH]c(=O)c3=N)cc1 |  | 32% | 0% |  |  |  | 37% | 0% | 0% | 0% | 0% | 45% |  |  | 0% | 38% |  |  |  |  | Activity [25]: Active; Activity [26]: Active
11 | N/N=C1\NCCN1c1ccc(Cl)cc1 |  |  |  |  |  |  |  |  |  |  |  |  |  |  |  |  | 18.4 µM (≈ 3.88 µg/mL) | 59.1 µM (≈ 12.5 µg/mL) | 29.5 µM (≈ 6.21 µg/mL) | 36.9 µM (≈ 7.77 µg/mL) | 
12 | COc1ccc(N2CCN/C2=N\N)cc1 |  | 4% | 0% |  |  |  |  | 0% | 0% | 23% | 17% | 9% |  |  | 0% |  | 18.7 µM (≈ 3.86 µg/mL) | 59.8 µM (≈ 12.3 µg/mL) | 29.9 µM (≈ 6.17 µg/mL) | 15 µM (≈ 3.09 µg/mL) | 
